A short description of this data set: Water solubility (statement). Format: physicochemical.

Residues, ends and D or L forms follow the SMILES beside them.

For the compound `N[C@@H](CC(=O)O)C(=O)N[C@@H](CO)C(=O)N[C@@H](CO)C(=O)N[C@@H](CC(=O)O)C(=O)N[C@@H](CO)C(=O)N[C@@H](CO)C(=O)N[C@@H](CC(=O)O)C(=O)N[C@@H](CO)C(=O)N[C@@H](CO)C(=O)N[C@@H](CC(=O)O)C(=O)N[C@@H](CO)C(=O)N[C@@H](CO)C(=O)N[C@@H](CC(=O)O)C(=O)N[C@@H](CO)C(=O)N[C@@H](CO)C(=O)N[C@@H](CC(=O)O)C(=O)N[C@@H](CO)C(=O)N[C@@H](CO)C(=O)N[C@@H](CC(=O)O)C(=O)N[C@@H](CO)C(=O)N[C@@H](CO)C(=O)N[C@@H](CC(=O)O)C(=O)N[C@@H](CO)C(=O)N[C@@H](CO)C(=O)O` [8DSS] (H-DSSDSSDSSDSSDSSDSSDSSDSS-OH; N-terminus and C-terminus assumed), the water solubility entry was “water soluble”.

Values taken from US20250318998A1, “REMINERALIZING RESTORATIVE COMPOSITIONS AND METHODS THEREOF” (ADA FORSYTH INSTITUTE, INC., priority 2023, published 2025).
